Measured values: the NIST ThermoML archive (doi:10.1016/j.fluid.2011.03.008)

What was measured:
[1] = xn = mol fraction of the nth substance listed; details: 293.15 K; for mass density: 101 kPa, Liquid, Vibrating tube method
[2] = for surface tension liquid-gas: Plate tensiometer; for mass density: 101.33 kPa, Liquid, Vibrating tube method

CO [methanol] + CCn1cc[n+](C)c1.COS(=O)(=O)[O-]
Details	surface tension liquid-gas [mN/m]
[1], Plate tensiometer, x2 = 0	21.8

Details	mass density [kg/m3]
[1], x2 = 0	791.2

CCO [ethanol] + CCn1cc[n+](C)c1.COS(=O)(=O)[O-]
Details	surface tension liquid-gas [mN/m]
[1], Plate tensiometer, x2 = 0	22

Details	mass density [kg/m3]
[1], x2 = 0	785.7

CCn1cc[n+](C)c1.COS(=O)(=O)[O-] [1-ethyl-3-methylimidazolium methylsulfate] + CCO
[1], Plate tensiometer
Details	surface tension liquid-gas [mN/m]
x1 = 0.04	22.75
x1 = 0.0597	23.23
x1 = 0.08	23.62
x1 = 0.0999	24.08
x1 = 0.2	26.08
x1 = 0.3	28.59
x1 = 0.4	30.09
x1 = 0.5	32.19
x1 = 0.5998	34.22
x1 = 0.6993	38.92
x1 = 0.8005	44.18
x1 = 0.9009	49.23
x1 = 1	52.62

[1]
Details	mass density [kg/m3]
x1 = 0.04	839.3
x1 = 0.0597	862.9
x1 = 0.08	885.6
x1 = 0.0999	906.5
x1 = 0.2	995.1
x1 = 0.3	1064.8
x1 = 0.4	1113.2
x1 = 0.5	1150.2
x1 = 0.5998	1179.8
x1 = 0.6993	1205.1
x1 = 0.8005	1227.1
x1 = 0.9009	1246.4
x1 = 1	1262.9

CCCCO [butan-1-ol] + CCn1cc[n+](C)c1.COS(=O)(=O)[O-]
Details	surface tension liquid-gas [mN/m]
[1], Ring tensiometer, x2 = 0	23.62

Details	mass density [kg/m3]
[1], x2 = 0	809.6

CCn1cc[n+](C)c1.COS(=O)(=O)[O-] [1-ethyl-3-methylimidazolium methylsulfate]
[2]
Details	mass density [kg/m3]	surface tension liquid-gas [mN/m]
283.15 K	1273.4	53.54
288.15 K	1270.1	53.28
293.15 K	1267	52.99
298.15 K	1262.9	52.62
303.15 K	1259.4	52.32
308.15 K	1255.8	52.03
313.15 K	1252.9	51.72
318.15 K	1249.9	51.44
323.15 K	1246.9	51.07
328.15 K	1243.5	50.68
333.15 K	1240.3	50.41

CCn1cc[n+](C)c1.COS(=O)(=O)[O-] [1-ethyl-3-methylimidazolium methylsulfate] + CO
[1], Plate tensiometer
Details	surface tension liquid-gas [mN/m]
x1 = 0.05	24.19
x1 = 0.08	25.56
x1 = 0.0995	26.19
x1 = 0.2001	30.12
x1 = 0.3024	33.16
x1 = 0.4012	37.21
x1 = 0.4971	40.02
x1 = 0.6	43.02
x1 = 0.7004	45.59
x1 = 0.8003	48.06
x1 = 0.8971	50.63
x1 = 0.9389	51.59
x1 = 1	52.62

[1]
Details	mass density [kg/m3]
x1 = 0.05	883.8
x1 = 0.08	928.9
x1 = 0.0995	957.2
x1 = 0.2001	1061.5
x1 = 0.3024	1122.2
x1 = 0.4012	1161.3
x1 = 0.4971	1189.3
x1 = 0.6	1212.1
x1 = 0.7004	1228
x1 = 0.8003	1242.3
x1 = 0.8971	1252.6
x1 = 0.9389	1256.7
x1 = 1	1262.9

CCn1cc[n+](C)c1.COS(=O)(=O)[O-] [1-ethyl-3-methylimidazolium methylsulfate] + CCCCO
[1], Ring tensiometer
Details	surface tension liquid-gas [mN/m]
x1 = 0.032	23.96
x1 = 0.071	24.3
x1 = 0.1	24.39
x1 = 0.2306	25.51
x1 = 0.3	26.11
x1 = 0.3996	27.13
x1 = 0.4989	28.16
x1 = 0.5993	28.58
x1 = 0.695	28.61
x1 = 0.7864	33.18
x1 = 0.9206	39.12
x1 = 0.9628	43.21
x1 = 1	52.62

[1]
Details	mass density [kg/m3]
x1 = 0.032	837.1
x1 = 0.071	868.3
x1 = 0.1	890.3
x1 = 0.2306	978.5
x1 = 0.3	1017.9
x1 = 0.3996	1066.8
x1 = 0.4989	1109.3
x1 = 0.5993	1147.1
x1 = 0.695	1179.6
x1 = 0.7864	1207.2
x1 = 0.9206	1243.6
x1 = 1	1262.9
